Assays:
microglia = assay: OX-42 immunostaining of LPS-activated microglia in neuron-glia cultures; format: cell-based; conditions: MMT 3 μM pretreated 30 min, twelve hours after LPS
Method: DA neurons were recognized with the polyclonal antibody against tyrosine hydroxylase (TH) and microglia was detected with the OX-42 antibody against CR3 receptor. Briefly, cells were fixed for 20 min at room temperature in 3.7% formaldehyde diluted in phosphate-buffered saline (PBS). After washing twice with PBS, the cultures were treated with 1% hydrogen peroxide for 10 min. […] To quantify cell numbers, nine representative areas per well in the 24-well plate were counted under the microscope at 100× magnification by two individuals. […]
To provide evidence of anti-inflammatory effect of MMT, the degree of inhibition of LPS-induced activation of microglia was determined by 1) morphological observation after immunostaining of microglia marker (OX-42) and 2) release of pro-inflammatory factors from activated microglia, such as extracelloualr superoxide radicals, intracellular reactive oxygen species (iROS), nitric oxide (NO), PGE2. […]

gp 91 = target: T1, gp 91 (Homo sapiens, UniProt P04839); assay: Competition of [3H]-labeled naloxine binding; conditions: preliminary data
T1 sequence (P04839 1-570): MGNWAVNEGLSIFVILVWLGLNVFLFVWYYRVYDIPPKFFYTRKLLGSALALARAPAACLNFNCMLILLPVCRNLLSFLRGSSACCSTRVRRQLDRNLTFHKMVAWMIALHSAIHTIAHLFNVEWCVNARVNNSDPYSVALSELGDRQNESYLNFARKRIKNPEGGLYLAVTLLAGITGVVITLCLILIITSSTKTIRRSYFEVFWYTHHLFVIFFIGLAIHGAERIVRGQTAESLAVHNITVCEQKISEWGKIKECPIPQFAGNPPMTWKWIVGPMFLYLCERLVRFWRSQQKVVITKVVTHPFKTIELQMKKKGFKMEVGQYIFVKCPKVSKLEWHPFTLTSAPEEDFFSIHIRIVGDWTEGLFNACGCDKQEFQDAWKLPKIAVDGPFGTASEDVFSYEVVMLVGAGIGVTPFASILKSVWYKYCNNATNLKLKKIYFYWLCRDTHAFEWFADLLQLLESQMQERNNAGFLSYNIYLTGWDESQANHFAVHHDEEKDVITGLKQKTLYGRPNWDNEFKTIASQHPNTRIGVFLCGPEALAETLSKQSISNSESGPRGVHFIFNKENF
T1 sequence (P13498 1-195 partner): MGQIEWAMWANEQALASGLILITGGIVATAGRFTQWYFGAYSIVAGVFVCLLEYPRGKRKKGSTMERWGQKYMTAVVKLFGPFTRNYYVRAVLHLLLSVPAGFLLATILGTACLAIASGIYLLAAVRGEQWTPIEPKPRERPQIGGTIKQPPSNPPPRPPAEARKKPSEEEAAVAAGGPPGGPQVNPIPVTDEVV
Excerpt: Results from two sets of experiments support this conclusion. […] Thus, the failure for MMT to protect LPS-induced DA neurons toxicity in NADPH oxidase-deficient neuron/glia cultures implies a critical role of this enzyme in mediating the neuroprotective effect of MMT. The present invention determines the binding site of MMT in microglia.

DA neurons = assay: [3H] DA uptake, MMT alone in rat mesencephalic neuron-glia cultures (neurotrophic effect); format: cell-based; conditions: for increase of DA uptake capacity by MMT alone: one week
Method: Rat and mouse ventral mesencephalic neuron-glia cultures were prepared using a described protocol (Gao H M, Hong J S, Zhang W Q, Liu B (2002) Distinct Role for Microglia in Rotenone-Induced Degeneration of Dopaminergic Neurons. J Neurosci 22(3):782-790). Briefly, midbrain tissues were dissected from day 14 Fisher 344 rat embryos or day 14 mouse embryos (PHOX^+/+ or PHOX^−/−). Cells were dissociated via gentle mechanical trituration in minimum essential medium (MEM) and immediately seeded (5×10^5/well) in poly D-lysine (20 μg/mL) precoated 24-well plates. Cells were seeded in maintenance media and treated with the treatment media described previously (Gao H M, Hong J S, Zhang W Q, Liu B (2002) Distinct Role for Microglia in Rotenone-Induced Degeneration of Dopaminergic Neurons. J Neurosci 22(3):782-790). Three days after seeding, the cells were replenished with 500 μL of fresh maintenance media. Cultures were exposed 7 days after seeding. At the time of treatment, the composition of the cultures was approximately 48% astrocytes, 11% microglia, 40% neurons, and 1 to 1.5% TH-immunoreactive (ir) neurons.
Cells were incubated in Krebs-Ringer buffer (16 mM NaH2PO4, 1.2 mM MgSO4, 1.3 mM EDTA, […], for 21 min at 37° C. with 1 μM [^3H] DA. Nonspecific uptake was blocked for DA with 10 μM mazindole. After incubation, cells were washed three times with 1 mL/well of ice-cold Krebs-Ringer buffer. Cells were then lysed with 0.5 mL/well of 1 N NaOH and mixed with 15 mL of scintillation fluid. Radioactivity was measured on a scintillation counter, where specific [^3H] DA uptake was calculated by subtracting the mazindole.
Rat mesencephalic neuron-glia cultures were pretreated for 30 min with vehicle or 1, 3, 10 μM MMT before adding LPS (2.5 to 5 ng/ml) to the cultures. One week later, the neurotoxic effect of LPS on DA neurons were assessed by both [H^3] DA uptake, which measures the functional capacity of high affinity uptake of DA cells and cell count of tyrosine hydroxylase-positive (TH-ir) cells. [H^3] […]

TNF-α = TNF-α ELISA after LPS; format: cell-based; conditions: 4 h after LPS treatment
Method: The production of TNF-α was measured with a commercial ELISA kit from R&D Systems. The PGE2 release was measured with a commercial ELISA kit from Cayman Chemical Company.
Neuron-glia cultures were pretreated for 30 min with MMT (3 μM) or vehicle before LPS stimulation. […] Production of superoxide (30 min after LPS) and iROS (2 h after LPS) was decreased by MMT treatment (FIGS. 6A and 6B). […] The production of PGE2 in cultures pretreated with 3 and 10 μM MMT decreased by 23% and 27% respectively (FIG. 6E).

CC12CC3CC(C)(C1)CC(N)(C3)C2.Cl [MMT, 1-amino-3,5-dimethyladamantane hydrochloride]
activation of OX-42 stained microglia vs LPS-treated cultures (microglia): less activated
competing the binding of [3H]-labeled naloxine (gp 91): effective in competing the binding
increase of DA uptake capacity by MMT alone (DA neurons; 3 μM MMT): 30%
increase of DA uptake capacity by MMT alone (DA neurons; 10 μM MMT): 80%
effect against spontaneous DA neurons death (DA neurons; MMT alone, rat primary midbrain neuron-glia cultures): dose-dependent surviving-promoting effects
release of TNF-α (TNF-α): reduced

Reference: patent US20150080475A1, “Memantine Protects Inflammation-Related Degeneration of Dopamine Neurons Through Inhibition of Over-Activated Microglia and Release of Neurotrophic Factors From Astroglia” (priority 2009, published 2015)
